Experimental data from patent US20050124498A1, “Halobenzyl substituted phenylaceto esters and amides and use thereof for prevention of harmful organisms” (priority 2002, published 2005).

Key:
[1] = tested on: Erysiphe graminis f.sp. hordei; test: Erysiphe test (barley)/protective; assay type: in vivo; details: Blumeria graminis, 168 h, protective, application rate 500 g/ha, evaluation 7 days after inoculation, read-out: efficacy
Procedure: Erysiphe test (barley)/protective [table] To produce a suitable preparation of active compound, 1 part by weight of active compound is mixed with the stated amounts of solvent and emulsifier, and the concentrate is diluted with water to the desired concentration. To test for protective activity, young plants are sprayed with the preparation of active compound at the stated application rate. After the spray coating has dried on, the plants are dusted with spores of Erysiphe graminis f.sp. hordei. The plants are placed in a greenhouse at a temperature of about 20° C. and a relative atmospheric humidity of about 80% to promote the development of mildew pustules.

Sphaerotheca fuliginea = test: Sphaerotheca test (cucumber)/protective; assay type: in vivo; details: Podosphaera fuliginea, 168 h, protective, application rate 100 g/ha, evaluation 7 days after inoculation, read-out: efficacy
Procedure: (§1) Sphaerotheca test (cucumber)/protective [table] To produce a suitable preparation of active compound, 1 part by weight of active compound is mixed with the stated amounts of solvent and emulsifier, and the concentrate is diluted with water to the desired concentration. To test for protective activity, young plants are sprayed with the preparation of active compound at the stated application rate. After the spray coating has dried on, the plants are inoculated with an aqueous spore suspension of Sphaerotheca fuliginea. The plants are then placed in a greenhouse at about 23° C. and about 70% relative atmospheric humidity.

[2] = tested on: apple scab pathogen Venturia inaequalis; test: Venturia test (apple)/protective; assay type: in vivo; details: 240 h, protective, application rate 100 g/ha, evaluation 10 days after inoculation, read-out: efficacy
Procedure: Venturia test (apple)/protective […] To produce a suitable preparation of active compound, 1 part by weight of active compound is mixed with the stated amounts of solvent and emulsifier, and the concentrate is diluted with water to the desired concentration. To test for protective activity, young plants are sprayed with the preparation of active compound at the stated application rate. After the spray coating has dried on, the plants are inoculated with an aqueous conidia suspension of the apple scab pathogen Venturia inaequalis and then remain in an incubation cabin at about 20° C. and 100% relative atmospheric humidity for 1 day. The plants are then placed in a greenhouse at about 21° C. and a relative atmospheric humidity of about 90%.

[3] = tested on: apple mildew pathogen Podosphaera leucotricha; test: Podosphaera test (apple)/protective; assay type: in vivo; details: 240 h, protective, application rate 100 g/ha, evaluation 10 days after inoculation, read-out: efficacy
Procedure: as §1, with “Podosphaera” for “Sphaerotheca”, “(apple)/protective” for “(cucumber)/protective”, “the apple mildew pathogen Podosphaera leucotricha.” for “Sphaerotheca fuliginea.”

[4] = tested on: army worm (Spodoptera frugiperda); test: Spodoptera frugipereda test/synthetic feed; assay type: in vivo; details: larva (L3) on synthetic feed, concentration of active compound 500 ppm
Procedure: Spodoptera frugipereda test/synthetic feed [table] To produce a suitable preparation of active compound, 1 part by weight of active compound is mixed with the stated amount of solvent and the stated amount of emulsifier, and the concentrate is diluted with emulsifier-containing water to the desired concentration. A stated amount of the preparation of active compound of the desired concentration is pipetted onto a standardized amount of synthetic feed. In 6 replications, in each case one larva (L3) of the army worm (Spodoptera frugiperda) is placed onto the feed. After the desired period of time, the kill in % is determined. 100% means that all animals have been killed; 0% means that none of the animals have been killed.

[5] = tested on: green peach aphid (Myzus persicae); test: Myzus test/broad beans; assay type: in vivo; details: broad bean seedlings dipped, active compound concentration 100 ppm, after 6 days
Procedure: Myzus test/broad beans [table] To produce a suitable preparation of active compound, 1 part by weight of active compound is mixed with the stated amount of solvent and the stated amount of emulsifier, and the concentrate is diluted with emulsifier-containing water to the desired concentration. Broad bean seedlings (Vicia faba minor) which are infected by the green peach aphid (Myzus persicae) are dipped into a preparation of active compound of the desired concentration and placed into a plastic dish. After the desired period of time, the kill in percent is determined. 100% means that all animals have been killed; 0% means that none of the animals have been killed.

Phytophthora infestans = test: whole plant or invertebrate; assay type: in vivo; details: in Solanum lycopersicum, 72 h, read-out: efficacy
Leptosphaeria nodorum = Leptosphaeria nodorum test (wheat)/protective; assay type: in vivo; details: Parastagonospora nodorum, 240 h, protective, application rate 500 g/ha, evaluation 10 days after inoculation, read-out: efficacy
Procedure: Leptosphaeria nodorum test (wheat)/protective [table] To produce a suitable preparation of active compound, 1 part by weight of active compound is mixed with the stated amounts of solvent and emulsifier, and the concentrate is diluted with water to the desired concentration. To test for protective activity, young plants are sprayed with the preparation of active compound at the stated application rate. After the spray coating has dried on, the plants are sprayed with a spore suspension of Leptosphaeria nodorum. The plants remain in an incubation cabin at 20° C. and 100% relative atmospheric humidity for 48 hours. The plants are placed in a greenhouse at a temperature of about 15° C. and a relative atmospheric humidity of 80%.

[6] = logP determination by HPLC (EEC Directive 79/831 Annex V.A8); details: pH 2

SMILES | pest or weed control at 500 g/ha [1] | pest or weed control at 100 g/ha (Sphaerotheca fuliginea) | pest or weed control at 100 g/ha [2] | pest or weed control at 100 g/ha [3] | chromatographic logP (physchem; pH 2, log P (pH 2)) | kill rate [4] | chromatographic logP (physchem; logP) | kill [5] | pest or weed control at 100 g/ha (Phytophthora infestans) | pest or weed control at 500 g/ha (Leptosphaeria nodorum) | log P (pH 2) | chromatographic logP [6]
CO/N=C(/C(=O)OC)c1c(F)cccc1Oc1ncnc(Oc2cccc(Cl)c2C)c1F [Example 1, methyl {2-[6-(3-chloro-2-methylphenoxy)-5-fluoropyrimidin-4-yloxy]-6-fluorophenyl}methoxyiminoacetate] | ≥ 98% | ≥ 98% | ≥ 97% | ≥ 82% | 4.23 | ≥ 98% |  |  |  |  |  | 
CNC(=O)/C(=N\OC)c1c(F)cccc1CO/N=C(\C)c1cccc(C(F)(F)F)c1 [Example 56] |  | ≥ 98% | ≥ 97% | ≥ 82% |  |  | 3.8 | 100% | ≥ 86% |  |  | 
CNC(=O)/C(=N/OC)c1c(F)cccc1Oc1cc(Oc2cccc(Cl)c2C)ncn1 [Example 57] |  | ≥ 98% | ≥ 97% | ≥ 82% |  |  | 3.24 |  | ≥ 86% | ≥ 98% |  | 
CO/N=C(/C(=O)OC)c1c(F)cccc1CBr [Example (VIII-1), methyl (2-bromomethyl-6-fluorophenyl)methoxyiminoacetate] |  |  |  |  | 2.58 |  |  |  |  |  | 2.87 | 
Cc1cccc(F)c1C(=O)C#N [Example (XX-1), 2-fluoro-6-methylbenzoyl cyanide] |  |  |  |  |  |  |  |  |  |  |  | 2.55
